The values that follow come from paper PMC8949944, “The Effect of Microbubble-Assisted Ultrasound on Molecular Permeability across Cell Barriers” (Pharmaceutics, 2022).

Several values for one entry are separate records, joined by “and”; a condition that tells them apart may be missing. Equal values may be shown once. Entries after “also recorded” stand apart in the source; their conditions may differ.

A short description of data set [1]: Permeability of model drugs across epithelial (MDCK II) barrier on transwell after USMB or sham treatment. Particulars: dog, MDCK; 0 MPa (sham); apical-to-basolateral; read-out: apparent permeability coefficient (Papp). Format: in vitro ADME, canine. As to the method:
(§1) For the permeability studies, epithelial cells were cultured as tight monolayers on transwell membranes. […] Prior to cell seeding, the transwell membranes were equilibrated for 10 min with culture medium at room temperature. […] The permeability of various test compounds across epithelial monolayers cultured on transwell membranes was studied in the apical-to-basolateral direction (Figure 1A). […] Ultrasound experiments were performed using an unfocused, single-element transducer with 20 mm diameter (PA420, Precision Acoustics, Dorchester, UK). […] The resulting signal was then amplified (AG1012, T&C Power Conversion Inc., New York, NY, USA) before it was sent to the ultrasound transducer. A dedicated sonication tank compatible with transwell inserts was used for the USMB experiments (Figure 1B). The ultrasound transducer was positioned at the bottom of the bath and about 250 mL of PBS at 37 °C was added. Subsequently, the transwell insert was immersed in the bath with the transwell membrane covered with cells facing down (Figure 1B) at a fixed axial distance (80 mm) from the ultrasound transducer. Transwell inserts were randomly assigned to USMB-treated or sham-treated sample groups. Following immersion of USMB-treated samples in the sonication bath, 500 μL of freshly mixed SonoVue^TM microbubbles (Bracco, Milan, Italy) was injected near the cells using a curved-tip 19G needle (Figure 1C). […] Microbubbles were allowed to float for 1 min so that direct contact with the cells was assured. Subsequently, ultrasound was applied for 1 min with acoustic peak negative pressure (Pneg) ranging between 0.3 and 0.7 MPa. […] Sham-treated samples were immersed in the PBS bath for 2 min and served as negative controls (0 MPa). […] Immediately after USMB treatment, transwell inserts were removed from the sonication bath (containing PBS) and were placed in a new six-well plate. […] The initial concentration of test compounds on the apical side was 1 μCi/mL for propranolol and mannitol and 200 μM for 6-carboxyfluorescein and fluorescent dextrans. An overview of the relevant physicochemical characteristics of the test compounds used in the permeability experiments is given in Table 1. […] The volume of removed sample was replaced with fresh HBSS. During the experiment, cells were kept at 37 °C and shaking at 170 rounds per minute. In the experiments where fluorescent compounds were used, samples were protected from light at all times. The samples containing radioactively-labelled compounds were equilibrated overnight in liquid scintillation cocktail for radiometric detection (Ultima Gold, 6013321, Perkin Elmer) at room temperature. Detection of radioactivity counts was determined by a microplate counter for radiometric counting (MicroBeta, 2450, Perkin Elmer). Intensity of fluorescence signals was determined by a spectrofluorophotometer (FP 8300, Jasco Benelux BV, Utrecht, The Netherlands). 6-carboxyfluorescein was excited at 492 nm and emission was detected at 517/5 nm (center wavelength/bandwidth) and TRITC-dextrans were excited at 550 nm and detected at 575/5 nm. Background radioactivity and fluorescence signal from HBSS were subtracted from the measurements. […] Q is the flux of the test compound (μg/s), C0 is the initial concentration of the test compound at the apical side (μg/mL), and A is the surface area of the transwell membrane (cm^2).

Data set [2] has as its system epithelial (MDCK II) cell barrier. Described as above. The data set is classed as in vitro ADME, canine. The conditions noted are these: for total permeated amount: 0 MPa (sham, absence of USMB), 120 min, apical-to-basolateral; for effect of USMB on permeability across epithelial barrier: increasing ultrasound pressures 0.3-0.7 MPa vs sham. As to the method:
as §1

Data set [3] relates to endothelial (HUVEC) barrier. Put plainly: Permeability of model drugs across endothelial (HUVEC) barrier on transwell. Format: in vitro ADME, Human. The source says: Supplementary Information: The Effect of Microbubble-As-sisted Ultrasound on Molecular Permeability across Cell Barri- […]
Charis Rousou, Josanne de Maar, Boning Qiu, Kim van der Wurff-Jacobs, Marika Ruponen, Arto Urtti, Sabrina Oliveira, Chrit Moonen, Gert Storm, Enrico Mastrobattista and Roel Deckers SI-1. Materials and methods
SI-1.1. Culture of endothelial cells
Human umbilical vein endothelial cells (HUVEC) were acquired from Lonza (Verviers, Belgium) and cultured in Endothelial Basal Medium (EBM-2) supplemented with growth factors (Growth Medium 2 SupplementMix®, PromoCell, Heidelberg Germany) and 0.1% antibiotics (gentamicin/amphotericin B, Gibco, New York, USA). Cells were sub-cultured 1-2 times per week in dilution ratios between 1:3-1:6 and were used up to passage number 7.
SI-1.2. Differentiation of endothelial cells […]
The effect of USMB treatment on the viability of epithelial cells was examined using the AlamarBlue assay. […] Next, the solution from the apical side was removed and fluorescence intensity was analyzed with a spectrofluorophotometer (FP 8300, Jasco) at excitation and emission wavelengths of 571 nm and 584/5 nm (center wavelength/bandwidth), respectively. Cell viability of each group was calculated as percentage fluorescent signal relative to that of sham treated cells. […]

For data set [4] the following is noted: cited from earlier work; for Hydrophilic/Lipophilic: classification in Table 1.

For `O=C(O)c1ccc(C(=O)O)c(-c2c3ccc(=O)cc-3oc3cc(O)ccc23)c1` [6-carboxyfluorescein], the Papp A→B at 120 min, 200 µM in data set [1] amounted to 0.06 ×10⁻⁶ cm/s. Also, in data set [2], the total permeated amount was 4.06% and 4.1 ± 0.5%; the “effect of USMB on permeability across epithelial barrier” value (“effect of USMB” below) was “did not have a significant effect; also recorded: lack of measurable effect”. For the same compound, in data set [3] (control samples (0 MPa), 120 minutes, endothelial barrier), the permeated amount amounted to 5.14%. Besides, the “Papp endothelial (HUVEC) barrier relative to epithelial (MDCK II) barrier” value in data set [3] (sham treatment, absence of USMB) is 22 times and ~ 20 times. In addition, in data set [4], the Hydrophilic/Lipophilic result is on record as “Hydrophilic”. Moreover, the log distribution coefficient (LogD) in data set [4] (octanol/water partition coefficient at pH 7.4) was −3.2.

On to `OC[C@@H](O)[C@@H](O)[C@H](O)[C@H](O)CO` [Mannitol, mannitol], for which, in data set [2], the total permeated amount worked out at 5.6 ± 1.4% and the “effect of USMB” value is “did not have a significant effect; also recorded: lack of measurable effect”. For the same compound, the Hydrophilic/Lipophilic entry in data set [4] is on record as “Hydrophilic”.

As to `CC(C)NCC(O)COc1cccc2ccccc12` (stereo not shown) [Propranolol, propranolol], in data set [2], the total permeated amount stood at 29.1 ± 2.2% and the “effect of USMB” value is on record as “did not have a significant effect”. Besides, the Hydrophilic/Lipophilic result in data set [4] is recorded as “Lipophilic”.
